From US20240373849A1, “INSECT NEUROPEPTIDE ANALOGUES” (THE UNIVERSITY COURT OF THE UNIVERSITY OF GLASGOW, priority 2020, published 2024)
Several values for one entry are separate records, joined by “and”; a condition that tells them apart may be missing. Identical values can stand only once. Square brackets hold non-standard residues; d marks the D form. * marks the point of attachment. Guanidyl = -C(=N+Me2)NMe2 on the N-terminal amine (tetramethylguanidyl cap), CN(C)C(=[N+](C)C)*; NMeV = CN[C@H](C(=O)O)C(C)C

T1: CapaR (Drosophila melanogaster, UniProt Q8ITC7)
T1 construct: transiently transfected with the apoaequorin ORF; expressed in transfected cells; host or cells: Drosophila melanogaster S2 cells, transient transfection, expression induced with CuSO4
T1 sequence (Q8ITC7 1-477): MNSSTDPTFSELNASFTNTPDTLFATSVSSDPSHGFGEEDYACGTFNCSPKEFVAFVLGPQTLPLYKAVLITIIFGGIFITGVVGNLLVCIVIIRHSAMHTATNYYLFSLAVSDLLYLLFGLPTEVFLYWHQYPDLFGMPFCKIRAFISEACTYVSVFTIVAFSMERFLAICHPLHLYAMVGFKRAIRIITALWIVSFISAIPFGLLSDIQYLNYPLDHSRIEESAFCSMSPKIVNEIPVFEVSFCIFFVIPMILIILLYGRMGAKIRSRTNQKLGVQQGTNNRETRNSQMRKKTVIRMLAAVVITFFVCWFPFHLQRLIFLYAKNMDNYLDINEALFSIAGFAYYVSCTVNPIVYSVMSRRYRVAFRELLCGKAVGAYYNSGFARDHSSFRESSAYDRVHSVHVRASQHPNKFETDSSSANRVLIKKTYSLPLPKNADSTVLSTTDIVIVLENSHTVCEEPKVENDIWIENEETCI

T2: Drosophila melanogaster capa GPCR, capaR (Drosophila melanogaster, UniProt Q8ITC7 1-477)
T2 sequence (looked up): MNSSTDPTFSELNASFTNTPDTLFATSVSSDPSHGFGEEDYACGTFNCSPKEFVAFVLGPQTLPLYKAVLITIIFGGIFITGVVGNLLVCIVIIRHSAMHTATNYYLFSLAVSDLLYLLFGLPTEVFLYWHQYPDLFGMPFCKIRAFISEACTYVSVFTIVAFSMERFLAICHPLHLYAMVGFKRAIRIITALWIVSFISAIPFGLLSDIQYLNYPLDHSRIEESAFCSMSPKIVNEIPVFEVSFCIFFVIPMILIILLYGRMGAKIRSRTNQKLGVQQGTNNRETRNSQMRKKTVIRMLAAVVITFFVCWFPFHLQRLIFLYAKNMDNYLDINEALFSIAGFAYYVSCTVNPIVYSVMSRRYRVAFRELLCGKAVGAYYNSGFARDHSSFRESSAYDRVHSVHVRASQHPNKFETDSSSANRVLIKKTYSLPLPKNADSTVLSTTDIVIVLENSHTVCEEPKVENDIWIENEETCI

B1: AH257 (Guanidyl-LVAFPR-(Me)V-NH2) (peptide)
peptide: Guanidyl-LVAFPR[NMeV]-NH2
SMILES: CC(C)C[C@H](NC(N(C)C)=[N+](C)C)C(=O)N[C@H](C(=O)N[C@@H](C)C(=O)N[C@@H](Cc1ccccc1)C(=O)N1CCC[C@H]1C(=O)N[C@@H](CCCNC(=N)N)C(=O)N(C)[C@H](C(N)=O)C(C)C)C(C)C
B2: AH259 (Guanidyl-L-(Me)V-AFPRV-NH2) (peptide)
peptide: Guanidyl-L[NMeV]AFPRV-NH2
SMILES: CC(C)C[C@H](NC(N(C)C)=[N+](C)C)C(=O)N(C)[C@H](C(=O)N[C@@H](C)C(=O)N[C@@H](Cc1ccccc1)C(=O)N1CCC[C@H]1C(=O)N[C@@H](CCCNC(=N)N)C(=O)N[C@H](C(N)=O)C(C)C)C(C)C

Tests used:
CapaR = molecular target: T1, CapaR; assay: Measurement of intracellular Ca2+ in S2 cells transfected with CapaR (agonist response); assay type: cell-based; settings: 10^−7 M; activity normalised to that of native Capa2 (designated 100%)
Protocol: Drosophila melanogaster S2 cells, cultured under standard conditions (1) were transiently transfected with the apoaequorin ORF (Radford J C, Davies S A, Dow J A. Systematic G-protein-coupled receptor analysis in Drosophila melanogaster identifies a leucokinin receptor with novel roles. J Biol Chem. 2002; 277:38810-38817) and a receptor ORF construct, and expression induced using CuSO4. Transfected S2 cells were harvested and incubated with 2.5 μM coelenterazine in the dark at RT for 1-2 h as described (ibid). 25,000 cells were then placed in 135 μl Schneider's medium supplemented with 10% FCS in a well of a white polystyrene 96-well plate (Berthold Technologies). Bioluminescence recordings were carried out using a Mithras LB940 automated 96-well plate reader (Berthold Technologies) and MikroWin software. 15 μl of each of different peptides were applied to final concentrations as required.
Peptides were tested at 10^−7M.
At the end of each recording samples were disrupted by the addition of 100 μl lysis solution, and the [Ca^2+] concentrations calculated as previously described (Rosay P, Davies S A, Yu Y, Sozen A, Kaiser K, et al. Cell-type specific calcium signalling in a Drosophila epithelium. J Cell Sci. 1997; 110:1683-1692).
For the Capa1 and Capa2 peptides, the relevant native control peptide (D. melanogaster Capa1 or Capa2 respectively) was used as a control. Control agonist activity was normalised to 100% and activity of neuropeptide analogues is expressed relative to that.

[1] = test system: bumblebees (Bombus terrestris); assay: Bumblebee acute oral toxicity test; assay type: in vivo
Protocol: Oral toxicity against bumblebees (Bombus terrestris) was determined as previously described:
OECD (2017), Test No. 247: Bumblebee, Acute Oral Toxicity Test, OECD Guidelines for the Testing of Chemicals, Section 2, OECD Publishing, Paris, https://doi.org/10.1787/9789264284128-en.
Example data are provided for peptides, AH56, AH257, AH259 in Tables 4, 5 below. […]
Data were acquired for: feeding behaviour—weight of liquid consumed pre- and post-treatment; lethality (days).
There was no negative impact on feeding behaviour from capa peptides. Acute bumblebee toxicity was also assessed for other peptide candidates including: AH270, PEG270. Overall, capa peptides are bee safe.

[2] = molecular target: T2, Drosophila melanogaster capa GPCR, capaR; assay: cell-based or functional assay

Row | Molecule | CapaR Ca^2+ Agonist response (CapaR) | lethal effect on bumblebees ([1]; 1×10^−5 M in 50% sucrose, 0.1% ATPlus, oral) | dead? ([1]; Table 10, individual bees, peptide ×10−5M or imidacloprid 28.3 uM in 50% sucrose, 0.1% ATPlus) | safety towards B. terrestris in the bumblebee oral toxicity assay ([1]; in vivo, po) | Est weight sucrose consumed post testing/day ([1]; individual bees, peptide ×10−5M or imidacloprid 28.3 uM in 50% sucrose, 0.1% ATPlus) | Feeding impacted? (+ve feeding increased post pep, −ve feeding decreased post pep) ([1]; individual bees, post minus pre testing sucrose consumption) | T-test outcome, sucrose consumed Pre vs Post ([1]; per treatment group) | CapaR Ca^2+ Agonist response at 10^-7 M [2]
1 | CC(C)C[C@H](N=C(N(C)C)N(C)C)C(=O)N[C@H](C(=O)N[C@@H](C)C(=O)N[C@@H](Cc1ccccc1)C(=O)N1CCC[C@H]1C(=O)N[C@@H](CCCNC(=N)N)C(=O)N(C)[C@H](C(N)=O)C(C)C)C(C)C [AH257, Guanidyl-LVAFPR-(Me)V-NH2] | 85% | No lethal effect | 2 | safe | 0.4789 grams/day and 0.0824 grams/day and 0.2612 grams/day and 0.3450 grams/day and 0.1265 grams/day and 0.4161 grams/day and 0.2912 grams/day and 0.3677 grams/day and 0.2298 grams/day and 0.3016 grams/day and 0.2869 grams/day | 0.0902 grams/day and −0.0881 grams/day and 0.0770 grams/day and 0.0006 grams/day and −0.0429 grams/day and −0.0008 grams/day and −0.0193 grams/day and 0.2039 grams/day and 0.0347 grams/day and 0.0995 grams/day and 0.0416 grams/day | No sig effect | 
2 | B1 |  |  |  |  |  |  |  | 85 % of native Capa2 activity
3 | B2 |  |  |  |  |  |  |  | 12 % of native Capa2 activity
